What was measured:
[1] = system: human T-cell leukemia cell line Jurkat cell; assay: Growth of Jurkat cells, live cell count by trypan blue staining; assay type: cell-based; conditions: for growth inhibitory activity of isolated components on Jurkat cells: 10, 25 and 50 μM, cells counted after 24, 48, 72 hours (FIG. 7); for IC50: Homo sapiens, Jurkat, isolated components, FIG. 7, read-out: IC50 in the inhibition of the growth of the Jurkat cells
Experimental: A human T-cell leukemia cell line Jurkat cell was obtained from the Independent Administrative Institution RIKEN BioResource Center (Tsukuba-shi, Ibaraki-ken). The cell was cultured in a RPMI 1640 medium (Wako Pure Chemical Industries, Ltd., Osaka-shi, Osaka-fu) containing 10% fetal bovine serum (Thermo Fisher Scientifics, K.K., MA, USA), 100 U/mL penicillin, and 100 μg/mL streptomycin (both from Life Technologies, Carlsbad, Calif., USA) at 37° C. in an environment of 95% air and 5% CO2.
The Jurkat cells were adjusted to 1×10^5 cells/mL and seeded in a 24-well multi-well plate (Thermo Fisher Scientifics, K.K.) by 500 μL per well. […] At 24, 48, and 72 hours after the sample treatment, the cells were stained with trypan blue (Life Technologies) to count live cells using a hemacytometer.
These components were examined for the growth inhibitory effect on the Jurkat cells. The Jurkat cells were treated with each component at final concentrations of 10, 25, and 50 μM and the number of cells was counted after 24, 48, and 72 hours.

Cyclin A = assay: Western blot of Cyclin A protein expression in Jurkat cells in S phase; assay type: cell-based, human; conditions: Phytol(+) vs Phytol(−), n=5, p<0.01 (FIG. 9)
Text: Next, the growth inhibition of the Jurkat cells caused by phytol and lutein was further investigated. As shown in FIG. 6 and FIG. 7, the growth inhibition of the Jurkat cells was caused by the induction of the cell cycle arrest in the S phase during cell division. Thus, it was further investigated how phytol induced the cell cycle arrest in the S phase. Specifically, protein expression of a molecule that controls the S phase of the cell cycle was examined by a Western blot method. […] Results of Cyclin A and β-Actin are shown with a phytol treatment (Phytol(+)) and without a phytol treatment (Phytol(−)). Further, in FIG. 9(b), the result of the Western blot shown in FIG. 9(a) was subjected to background correction using an image analysis software imageJ and then subjected to a densitometry analysis to obtain a ratio of a band density of Cyclin A relative to that of β-Actin. In evaluating data, a value of Phytol(+) was calculated by taking a value of Phytol(−) as 1 and represented as a mean±standard deviation (n=5). Comparison between Phytol(−) and Phytol(+) was tested by a Tukey-Kramer method (p<0.01).

[2] = system: human normal lymphoid cell; assay: Effect on growth of human normal lymphoid cell (trypan blue count); assay type: cell-based; conditions: stated with reference to FIG. 8

| IC50 [1] | SMILES | growth inhibitory activity of isolated components on Jurkat cells [1] | expression of Cyclin A (band relative to β-Actin) (Cyclin A) | growth inhibitory effect on the normal cell [2] |
| --- | --- | --- | --- | --- |
| – | CC(C)C/C=C/[C@@H](C)[C@H]1CC[C@H]2[C@@H]3CC=C4C[C@@H](O)CC[C@]4(C)[C@H]3CC[C@]12C [22-dehydrocholesterol] | hardly inhibited the growth of the Jurkat cells | – | – |
| 22.6 µM | CC1=C[C@H](O)CC(C)(C)[C@H]1/C=C/C(C)=C/C=C/C(C)=C/C=C/C=C(C)/C=C/C=C(C)/C=C/C1=C(C)C[C@@H](O)CC1(C)C [lutein] | significant growth inhibitory activity | – | – |
| 12.8 µM | C/C(=C\CO)CCC[C@H](C)CCC[C@H](C)CCCC(C)C [phytol, Phytol] | significant growth inhibitory activity | suppressed | does not exhibit the growth inhibitory effect |

Source: patent US10758583B2, “Processed food and pharmaceutical composition having watermelon sprout-derived substances as main ingredients” (KINKI UNIVERSITY, priority 2016, dated 2020)
